One test deals with T1, HiBit-BRM fusion protein (Homo sapiens, UniProt P51531).
T1 construct: expressed in transfected cells
The test can be described thus: HiBiT-BRM cell-based degradation assay (Nano-Glo HiBiT Lytic Detection, 24 h). Particulars: stable HeLa cell line expressing HiBiT-BRM, top dose 30 μM. As for the experimental part: (§1) Procedure: A stable HeLa cell line expressing HiBiT-BRM was generated. On day 0, 5000 cells were seeded in 40 μL of media into each well of 384-well cell culture plates. On day 1, cells were treated with 120 nL DMSO or 120 nL of 3-fold serially DMSO-diluted compounds (10 points in duplicate with 30 μM as final top dose). Subsequently plates were incubated for 24 h in a standard tissue culture incubator and equilibrated at room temperature for 15 minutes. Nano-Glo HiBiT Lytic Detection System (Promega N3050) reagent was freshly prepared and 20 ul was added to each well. Upon addition of this LgBit-containing reagent, the HiBiT and LgBiT proteins associate to form the luminescent NanoBiT luciferase. The plates were shaken for 10 minutes at room temperature and the bioluminescence read using an EnVision plate reader (PerkinElmer).
(§2) The degradation % was calculated using the following formula: % degradation=100%−100%×(Lumsample−LumLC)/(LumHC−LumLC). DMSO treated cells are employed as High Control (HC) and 2 μM of a known BRM/BRG1 degrader standard treated cells are employed as Low Control (LC).
A general note: With HiBiT, luminescence reflects the tagged protein that the partner subunit can reach.

The target in test [1] is T2, HiBit-BRG1 fusion protein (Homo sapiens, UniProt P51532).
T2 construct: expressed in transfected cells
T2 sequence (P51532 whole entry, the tested form may be a part): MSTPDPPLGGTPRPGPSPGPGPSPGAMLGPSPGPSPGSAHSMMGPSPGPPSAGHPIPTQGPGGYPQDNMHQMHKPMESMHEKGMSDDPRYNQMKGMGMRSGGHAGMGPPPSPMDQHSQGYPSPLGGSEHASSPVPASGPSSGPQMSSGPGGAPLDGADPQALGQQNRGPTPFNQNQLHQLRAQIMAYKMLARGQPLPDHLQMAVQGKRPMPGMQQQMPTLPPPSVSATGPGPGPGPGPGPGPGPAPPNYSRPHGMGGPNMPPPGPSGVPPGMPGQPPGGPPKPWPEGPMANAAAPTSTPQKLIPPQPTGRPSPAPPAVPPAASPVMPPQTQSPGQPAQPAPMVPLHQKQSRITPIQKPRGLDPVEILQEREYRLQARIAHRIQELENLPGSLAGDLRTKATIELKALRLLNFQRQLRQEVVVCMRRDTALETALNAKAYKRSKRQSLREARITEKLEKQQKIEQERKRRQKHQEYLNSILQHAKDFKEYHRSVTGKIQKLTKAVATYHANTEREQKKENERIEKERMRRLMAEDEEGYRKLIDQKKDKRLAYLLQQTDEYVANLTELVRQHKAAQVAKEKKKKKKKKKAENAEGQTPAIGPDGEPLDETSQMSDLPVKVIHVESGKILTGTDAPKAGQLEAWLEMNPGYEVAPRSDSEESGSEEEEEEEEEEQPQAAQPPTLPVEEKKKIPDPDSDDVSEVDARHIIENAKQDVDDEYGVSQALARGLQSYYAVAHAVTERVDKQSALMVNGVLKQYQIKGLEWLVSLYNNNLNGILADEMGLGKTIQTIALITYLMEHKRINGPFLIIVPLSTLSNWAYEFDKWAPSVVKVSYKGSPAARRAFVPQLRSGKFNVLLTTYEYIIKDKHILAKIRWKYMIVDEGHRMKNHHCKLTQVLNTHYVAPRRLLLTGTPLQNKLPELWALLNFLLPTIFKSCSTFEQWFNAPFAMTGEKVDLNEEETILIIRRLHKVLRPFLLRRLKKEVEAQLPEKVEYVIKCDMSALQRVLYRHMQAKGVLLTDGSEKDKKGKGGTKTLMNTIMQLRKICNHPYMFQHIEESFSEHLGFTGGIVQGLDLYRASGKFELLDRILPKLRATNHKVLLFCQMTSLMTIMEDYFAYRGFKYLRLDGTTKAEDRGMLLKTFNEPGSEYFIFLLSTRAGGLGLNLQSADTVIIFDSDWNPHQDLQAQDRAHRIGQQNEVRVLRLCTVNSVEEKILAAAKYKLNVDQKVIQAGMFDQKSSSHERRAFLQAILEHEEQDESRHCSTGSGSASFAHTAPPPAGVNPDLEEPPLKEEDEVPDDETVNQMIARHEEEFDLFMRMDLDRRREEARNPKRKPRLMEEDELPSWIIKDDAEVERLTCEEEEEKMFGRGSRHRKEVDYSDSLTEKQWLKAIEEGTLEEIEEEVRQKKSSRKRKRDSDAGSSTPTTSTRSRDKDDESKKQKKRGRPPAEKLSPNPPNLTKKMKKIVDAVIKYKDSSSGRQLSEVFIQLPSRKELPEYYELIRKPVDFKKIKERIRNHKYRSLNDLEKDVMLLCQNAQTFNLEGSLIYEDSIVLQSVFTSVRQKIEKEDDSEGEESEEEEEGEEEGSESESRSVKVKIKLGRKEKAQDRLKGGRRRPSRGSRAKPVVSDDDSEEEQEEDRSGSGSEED
The test can be described thus: HiBiT-BRG1 cell-based degradation assay (Nano-Glo HiBiT Lytic Detection, 24 h). Particulars: stable HeLa cell line expressing HiBit-BRG1 and LgBit, top dose 30 μM, read-out: BRG1 HiBit Degradation Maximum (%). As for the experimental part:
as §1
For measurement of BRG1 degradation, a stable HeLa cell line expressing HiBit-BRG1 and LgBit was generated. The same protocol as above was then followed.
as §2

Molecules are shown by their SMILES. A value given as a limit tells only on which side of the number the result lay.

T1 sequence (P51531 whole entry, the tested form may be a part): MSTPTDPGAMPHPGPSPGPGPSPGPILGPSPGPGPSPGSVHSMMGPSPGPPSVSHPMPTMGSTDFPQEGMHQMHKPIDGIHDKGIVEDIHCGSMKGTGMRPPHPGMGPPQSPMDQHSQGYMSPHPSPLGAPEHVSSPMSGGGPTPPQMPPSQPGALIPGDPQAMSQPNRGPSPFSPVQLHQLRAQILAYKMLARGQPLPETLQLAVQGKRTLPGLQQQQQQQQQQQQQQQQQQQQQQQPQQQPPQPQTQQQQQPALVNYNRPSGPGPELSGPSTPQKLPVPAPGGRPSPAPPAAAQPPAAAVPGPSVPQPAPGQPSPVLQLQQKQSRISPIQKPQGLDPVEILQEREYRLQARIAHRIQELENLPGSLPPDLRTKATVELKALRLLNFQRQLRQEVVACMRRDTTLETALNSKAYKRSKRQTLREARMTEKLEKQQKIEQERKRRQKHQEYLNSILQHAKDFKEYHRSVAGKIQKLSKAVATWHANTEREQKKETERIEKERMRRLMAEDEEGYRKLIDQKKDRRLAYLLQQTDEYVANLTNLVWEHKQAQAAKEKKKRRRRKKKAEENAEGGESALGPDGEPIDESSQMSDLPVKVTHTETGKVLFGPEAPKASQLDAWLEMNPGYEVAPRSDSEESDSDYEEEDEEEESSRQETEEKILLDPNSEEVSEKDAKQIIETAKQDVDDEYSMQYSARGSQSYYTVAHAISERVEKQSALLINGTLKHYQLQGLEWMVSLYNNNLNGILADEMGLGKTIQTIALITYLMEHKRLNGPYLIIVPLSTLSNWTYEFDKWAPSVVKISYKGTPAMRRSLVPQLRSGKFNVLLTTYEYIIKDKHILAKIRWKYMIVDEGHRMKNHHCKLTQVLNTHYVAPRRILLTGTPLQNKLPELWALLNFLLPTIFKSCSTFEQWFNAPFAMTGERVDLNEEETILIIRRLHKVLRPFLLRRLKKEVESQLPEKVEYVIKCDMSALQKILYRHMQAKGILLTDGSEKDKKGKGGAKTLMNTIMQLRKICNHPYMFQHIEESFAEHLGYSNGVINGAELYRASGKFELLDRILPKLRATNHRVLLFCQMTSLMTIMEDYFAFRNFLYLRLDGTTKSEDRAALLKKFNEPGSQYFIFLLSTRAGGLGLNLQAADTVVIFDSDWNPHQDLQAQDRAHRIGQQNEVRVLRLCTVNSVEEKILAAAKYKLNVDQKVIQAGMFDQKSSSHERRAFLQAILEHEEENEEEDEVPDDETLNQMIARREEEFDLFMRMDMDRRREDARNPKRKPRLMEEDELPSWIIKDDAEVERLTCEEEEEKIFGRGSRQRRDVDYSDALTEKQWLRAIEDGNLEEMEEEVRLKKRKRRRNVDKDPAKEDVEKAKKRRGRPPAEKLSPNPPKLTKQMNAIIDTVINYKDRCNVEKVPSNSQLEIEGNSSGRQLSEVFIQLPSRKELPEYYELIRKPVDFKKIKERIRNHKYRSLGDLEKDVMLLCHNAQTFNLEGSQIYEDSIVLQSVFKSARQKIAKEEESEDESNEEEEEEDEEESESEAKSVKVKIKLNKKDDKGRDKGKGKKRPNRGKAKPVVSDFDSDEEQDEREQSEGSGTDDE

For `Cc1ncsc1-c1ccc(CNC(=O)[C@@H]2C[C@@H](O)CN2C(=O)[C@@H](NC(=O)C23CC(COc4cc(-c5ccccc5O)nnc4N)(C2)C3)C(C)(C)C)cc1` [Compound 105, (2S,4R)-1-((S)-2-(3-(((3-amino-6-(2-hydroxyphenyl)pyridazin-4-yl)oxy)methyl)bicyclo[1.1.1]pentane-1-carboxamido)-3,3-dimethylbutanoyl)-4-hydroxy-N-(4-(4-methylthiazol-5-yl)benzyl)pyrrolidine-2-carboxamide], the “BRM HiBit Degradation Maximum (%)” value on HiBit-BRM fusion protein was “C (“C” indicates maximum degradation < 50%)”. Also, the Dmax in test [1] was under 50%.

Regarding `Nc1nnc(-c2ccccc2O)cc1OCC12CC(CNC(=O)C3CC3CNC(=O)COc3ccc4c(c3)C(=O)N(C3CCC(=O)NC3=O)C4=O)(C1)C2` (stereo not drawn) [Compound 13, N-[[3-([[3-amino-6-(2-hydroxyphenyl)pyridazin-4-yl]oxy]methyl)bicyclo[1.1.1]pentan-1-yl]methyl]-2-[(2-[[2-(2,6-dioxopiperidin-3-yl)-1,3-dioxoisoindol-5-yl]oxy]acetamido)methyl]cyclopropane-1-carboxamide], on HiBit-BRM fusion protein, the “BRM HiBit Degradation Maximum (%)” value is on record as “C (“C” indicates maximum degradation < 50%)”. Further, the Dmax in test [1] was under 50%.

Regarding `Nc1nnc(-c2ccccc2O)cc1OCC12CC(C(=O)NCCOCCOCCNC(=O)COc3cccc4c3C(=O)N(C3CCC(=O)NC3=O)C4=O)(C1)C2` (stereo not drawn) [Compound 90, 3-(((3-amino-6-(2-hydroxyphenyl)pyridazin-4-yl)oxy)methyl)-N-(2-(2-(2-(2-((2-(2,6-dioxopiperidin-3-yl)-1,3-dioxoisoindolin-4-yl)oxy)acetamido)ethoxy)ethoxy)ethyl)bicyclo[1.1.1]pentane-1-carboxamide], the “BRM HiBit Degradation Maximum (%)” value on HiBit-BRM fusion protein is recorded as “C (“C” indicates maximum degradation < 50%)”. In test [1], the Dmax was under 50%.

As to `Nc1nnc(-c2ccccc2O)cc1OCC12CC(C(=O)NCCOCc3cccc(COCCOc4cccc5c4C(=O)N(C4CCC(=O)NC4=O)C5=O)c3)(C1)C2` (stereo not drawn) [Compound 85, 3-(((3-amino-6-(2-hydroxyphenyl)pyridazin-4-yl)oxy)methyl)-N-(2-((3-((2-((2-(2,6-dioxopiperidin-3-yl)-1,3-dioxoisoindolin-4-yl)oxy)ethoxy)methyl)benzyl)oxy)ethyl)bicyclo[1.1.1]pentane-1-carboxamide], at HiBit-BRM fusion protein, the “BRM HiBit Degradation Maximum (%)” value was “C (“C” indicates maximum degradation < 50%)”. The Dmax in test [1] was under 50%.

In the case of `Nc1nnc(-c2ccccc2O)cc1OCC12CC(C(=O)N3CCN(CCCOCC#Cc4ccc5c(c4)C(=O)N(C4CCC(=O)NC4=O)C5=O)CC3)(C1)C2` (stereo not drawn) [Compound 52, 5-(3-(3-(4-(3-(((3-amino-6-(2-hydroxyphenyl)pyridazin-4-yl)oxy)methyl)bicyclo[1.1.1]pentane-1-carbonyl)piperazin-1-yl)propoxy)prop-1-yn-1-yl)-2-(2,6-dioxopiperidin-3-yl)isoindoline-1,3-dione], the “BRM HiBit Degradation Maximum (%)” value on HiBit-BRM fusion protein is “C (“C” indicates maximum degradation < 50%)”. The Dmax in test [1] is under 50%.

For the molecule `Cc1ncsc1-c1ccc(CNC(=O)[C@@H]2C[C@@H](O)CN2C(=O)[C@@H](NC(=O)CCCCCCCCCCCCCCC(=O)NCC23CC(COc4cc(-c5ccccc5O)nnc4N)(C2)C3)C(C)(C)C)cc1` [Compound 41, N1-((3-(((3-amino-6-(2-hydroxyphenyl)pyridazin-4-yl)oxy)methyl)bicyclo[1.1.1]pentan-1-yl)methyl)-N16-((S)-1-((2S,4R)-4-hydroxy-2-((4-(4-methylthiazol-5-yl)benzyl)carbamoyl)pyrrolidin-1-yl)-3,3-dimethyl-1-oxobutan-2-yl)hexadecanediamide], the “BRM HiBit Degradation Maximum (%)” value at HiBit-BRM fusion protein is reported as “B (“B” indicates maximum degradation ≥ 50%)”. Also, in test [1], the Dmax is under 50%.

Consider `Nc1nnc(-c2ccccc2O)cc1OCCC12CC(NC(=O)CCCOc3cccc4c3C(=O)N(C3CCC(=O)NC3=O)C4=O)(C1)C2` (stereo not drawn) [Compound 18, N-(3-(2-((3-amino-6-(2-hydroxyphenyl)pyridazin-4-yl)oxy)ethyl)bicyclo[1.1.1]pentan-1-yl)-4-((2-(2,6-dioxopiperidin-3-yl)-1,3-dioxoisoindolin-4-yl)oxy)butanamide], for which the “BRM HiBit Degradation Maximum (%)” value on HiBit-BRM fusion protein was “C (“C” indicates maximum degradation < 50%)”. Besides, the Dmax in test [1] is under 50%.

Regarding `Nc1nnc(-c2ccccc2O)cc1OCC12CC(C(=O)N3CCC(CCN4CCN(c5ccc6c(c5)C(=O)N(C5CCC(=O)NC5=O)C6=O)CC4)CC3)(C1)C2` (stereo not drawn) [Compound 94, 5-(4-(2-(1-(3-(((3-amino-6-(2-hydroxyphenyl)pyridazin-4-yl)oxy)methyl)bicyclo[1.1.1]pentane-1-carbonyl)piperidin-4-yl)ethyl)piperazin-1-yl)-2-(2,6-dioxopiperidin-3-yl)isoindoline-1,3-dione], the “BRM HiBit Degradation Maximum (%)” value on HiBit-BRM fusion protein is given as “B (“B” indicates maximum degradation ≥ 50%)”. Besides, in test [1], the Dmax is under 50%.

With `Nc1nnc(-c2ccccc2O)cc1OCCC12CC(NC(=O)CCOCCOCCOc3ccc4c(c3)C(=O)N(C3CCC(=O)NC3=O)C4=O)(C1)C2` (stereo not drawn) [Compound 31, N-(3-(2-((3-amino-6-(2-hydroxyphenyl)pyridazin-4-yl)oxy)ethyl)bicyclo[1.1.1]pentan-1-yl)-3-(2-(2-((2-(2,6-dioxopiperidin-3-yl)-1,3-dioxoisoindolin-5-yl)oxy)ethoxy)ethoxy)propanamide], at HiBit-BRM fusion protein, the “BRM HiBit Degradation Maximum (%)” value is recorded as “C (“C” indicates maximum degradation < 50%)”. Besides, in test [1], the Dmax is under 50%.

As to `Nc1nnc(-c2ccccc2O)cc1OCC12CC(C(=O)N3CCN(CC4CN(c5ccc6c(c5)C(=O)N(C5CCC(=O)NC5=O)C6=O)C4)CC3)(C1)C2` (stereo not drawn) [Compound 102, 5-(3-((4-(3-(((3-amino-6-(2-hydroxyphenyl)pyridazin-4-yl)oxy)methyl)bicyclo[1.1.1]pentane-1-carbonyl)piperazin-1-yl)methyl)azetidin-1-yl)-2-(2,6-dioxopiperidin-3-yl)isoindoline-1,3-dione], the “BRM HiBit Degradation Maximum (%)” value at HiBit-BRM fusion protein was “B (“B” indicates maximum degradation ≥ 50%)”. Moreover, in test [1], the Dmax was under 50%.

Regarding `Nc1nnc(-c2ccccc2O)cc1OCC12CC(CNC(=O)CCOCCOCCOc3cccc4c3C(=O)N(C3CCC(=O)NC3=O)C4=O)(C1)C2` (stereo not drawn) [Compound 14, N-((3-(((3-amino-6-(2-hydroxyphenyl)pyridazin-4-yl)oxy)methyl)bicyclo[1.1.1]pentan-1-yl)methyl)-3-(2-(2-((2-(2,6-dioxopiperidin-3-yl)-1,3-dioxoisoindolin-4-yl)oxy)ethoxy)ethoxy)propanamide], on HiBit-BRM fusion protein, the “BRM HiBit Degradation Maximum (%)” value is “C (“C” indicates maximum degradation < 50%)”. Further, the Dmax in test [1] was under 50%.

Take `Cc1ncsc1-c1ccc(CNC(=O)[C@@H]2C[C@@H](O)CN2C(=O)[C@@H](NC(=O)CCCCCCCCCCC(=O)NC23CC(CCOc4cc(-c5ccccc5O)nnc4N)(C2)C3)C(C)(C)C)cc1` [Compound 47, N1-(3-(2-((3-amino-6-(2-hydroxyphenyl)pyridazin-4-yl)oxy)ethyl)bicyclo[1.1.1]pentan-1-yl)-N12-((S)-1-((2S,4R)-4-hydroxy-2-((4-(4-methylthiazol-5-yl)benzyl)carbamoyl)pyrrolidin-1-yl)-3,3-dimethyl-1-oxobutan-2-yl)dodecanediamide]: the “BRM HiBit Degradation Maximum (%)” value on HiBit-BRM fusion protein is “B (“B” indicates maximum degradation ≥ 50%)”. Moreover, the Dmax in test [1] is under 50%.

Values taken from patent publication US12552775B2, “Compounds and uses thereof” (Foghorn Therapeutics Inc., priority 2020, dated 2026).
